Reference: patent US20220017516A1, “LOX INHIBITORS” (THE INSTITUTE OF CANCER RESEARCH: ROYAL CANCER HOSPITAL, priority 2018, published 2022)
Numbering of substitutions follows the chain as printed. Where two headings read alike, the source gives them in different places. Blank lines part the entries; values can stand above or below the compound they belong to.

Tests used:
LOX [1] = molecular target: T1, LOX (Sus scrofa, UniProt P45845); test: LOX isoform activity assay (ROS Glo), LOX; assay type: biochemical, pig; conditions: 1 h incubation with enzyme
T1 construct: LOX was extracted from pig skin by previously described methods; from tissue; host or cells: pig skin
T1 sequence (P45845 1-249): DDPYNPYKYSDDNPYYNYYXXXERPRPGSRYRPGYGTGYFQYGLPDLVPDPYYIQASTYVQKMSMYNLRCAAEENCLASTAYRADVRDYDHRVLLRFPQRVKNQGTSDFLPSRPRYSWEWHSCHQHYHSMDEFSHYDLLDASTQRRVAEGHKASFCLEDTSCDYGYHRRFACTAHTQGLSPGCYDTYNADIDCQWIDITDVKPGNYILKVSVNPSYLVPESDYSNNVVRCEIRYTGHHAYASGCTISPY
Summary of the method: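 Pig-skin LOX or recombinant LOXL3 preincubated 1 h with compound (100-0.003 μM final) in pH 9 CHES buffer containing 1 M urea. Then 19.56 mM cadaverine plus 25 μM H2O2 added, 1.5 h (LOX) or 1 h (LOXL3) at room temperature. ROS-Glo luminescence; IC50 from curve fit.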

LOXL3 = molecular target: T2, LOXL3 (Homo sapiens, UniProt P58215); test: LOX isoform activity assay (ROS Glo), LOXL3; assay type: biochemical; conditions: 1 h incubation with enzyme
T2 construct: purchased R&D Systems/Bio-techne
T2 sequence (P58215 26-753): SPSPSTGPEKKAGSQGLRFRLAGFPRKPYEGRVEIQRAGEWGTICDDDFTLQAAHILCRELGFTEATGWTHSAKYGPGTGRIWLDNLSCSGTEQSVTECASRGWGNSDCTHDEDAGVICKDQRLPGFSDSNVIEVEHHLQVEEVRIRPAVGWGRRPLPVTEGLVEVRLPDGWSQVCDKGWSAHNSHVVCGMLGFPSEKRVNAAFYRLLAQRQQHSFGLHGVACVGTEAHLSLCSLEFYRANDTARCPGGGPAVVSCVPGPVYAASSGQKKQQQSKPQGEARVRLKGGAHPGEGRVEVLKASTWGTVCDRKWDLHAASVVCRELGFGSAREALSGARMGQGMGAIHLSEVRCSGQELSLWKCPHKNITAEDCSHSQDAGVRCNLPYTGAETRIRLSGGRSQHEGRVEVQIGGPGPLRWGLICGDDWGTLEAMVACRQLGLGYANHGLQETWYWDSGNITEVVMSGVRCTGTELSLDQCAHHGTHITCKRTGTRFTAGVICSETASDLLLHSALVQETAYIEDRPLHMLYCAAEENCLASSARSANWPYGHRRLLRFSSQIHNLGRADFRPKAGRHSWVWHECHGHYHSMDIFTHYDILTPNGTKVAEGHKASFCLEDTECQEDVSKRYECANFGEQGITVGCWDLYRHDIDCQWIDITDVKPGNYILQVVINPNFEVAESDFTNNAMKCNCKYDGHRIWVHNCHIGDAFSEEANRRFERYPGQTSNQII
Method: LOX was extracted from pig skin by previously described methods (Shackleton and Hulmes, 1990). LOXL2 and LOXL3 were obtained from R&D Systems/Bio-techne. The Promega ROS Glo assay kit (G8821) was used to assess enzyme activity. Overall, test compound was added to either 384 well assay plates (Greiner) using a Labcyte Echo™ Acoustic Handler or to 96 well plates for a final assay concentration of 100, 30, 10, 3, 1, 0.3, 0.1, 0.03, 0.01 and 0.003 μM final assay concentration. Enzymes were diluted according to specific pre-determined activity in assay buffer (100 mM CHES, pH 9, 0.05% (w/v) pluronic F-127, 0.5% (w/v) BSA, 1 mM MgCl2, 1 M urea, 100 mM NaCl) and added to the plate. For LOXL2, the mixture was incubated for 20 min, 1 h or 20 h; for LOX and LOXL3, incubation time was 1 h. Cadaverine and H2O2 substrate were then added to each well (final assay concentration 19.56 mM and 25 μM respectively) and the plates were incubated for 1.5 h (for LOX) or 1 h (for LOXL2 and LOXL3) at room temperature. Finally, luciferin detection reagent was added and plates were incubated for 20 min at room temperature, protected from light. Luminescence was measured using a BMG LABTECH PHERAstar FS reader and resulting IC50 values were calculated using GraphPad Prism software.

LOX [2] = molecular target: T3, LOX (Mus musculus, UniProt P28301); test: LOX activity in cysts assay (roGFP2 LOX biosensor in MDCK cysts); assay type: cell-based; conditions: for inhibition at 10 µM: read-out: Cyst LOX @ 10 uM (% inhibition)
T3 construct: Full length LOX cDNA was then PCR cloned into pEGFP-N1 (Clonetech), or biosensor vector proGFP2—N1; expressed in transfected cells; host or cells: MDCK cells grown as cysts on Matrigel
T3 sequence (P28301 163-411): T1 sequence (P45845 1-249) with X20D, X21T, X22Y, Y31N, T80S, S142N, N188A, K202Q, S224T, E231D
Method: All cell lines used in this study were purchased from American Type Culture Collection (ATCC). Mycoplasma contamination was routinely monitored by PCR. Cells used were not found to be Mycoplasma positive. MDCK cell lines were cultured in Dulbecco's Modified Eagle Medium (DMEM) supplemented with 10% fetal bovine serum (FBS) and 1% Penicillin Streptomycin solution (Pen Strep). For GFP constructs transfection in MDCK cells, lipofectamine 3000 was used according to manufactures protocols. Cells were either selected with G418 (Life Technologies) at 5 mg/ml. All cell culture reagents were purchased from Life Technologies.
To produce MDCK cysts, cells were cultured on Matrigel (Corning) with 2% Matrigel supplemented in DMEM with 10% FBS. Cysts were allowed to form for 10 days before subsequent studies.
Mouse LOX cDNA was purchased from OriGene. Full length LOX cDNA was then PCR cloned into pEGFP-N1 (Clonetech), or biosensor vector proGFP2—N1 (Hanson, 2004) using the following primers, […] (forward primer) and […] (reverse primer). For the insertion into pEGFP-N1 or proGFP2—N1, Nhel and Xhol restriction sites were added to forward and reverse primers accordingly. Mutant LOX constructs were made using QuickChange II site-directed mutagenesis kit (Agilent Technologies) following manufacture's protocol using LOX-GFP as template. To generate, roGFP2 versions of LOX mutant constructs, LOX mutant cDNA was transferred from pEGFP-N1 to proGFP2—N1 using Nhel and Xhol.
All photomicrographs were taken with a Leica TCS SP8 X confocal system. For LOX biosensor imaging, live MDCK cysts were used. The oxidised biosensor was excited using a 405 nm laser, while the reduced biosensor was excited with a 488 nm laser. Emission of the biosensor was recorded at 500 nm-530 nm range using sequential scans. Ratio images were generated following a published protocol {Kardash, 2011 #376}. Note, while the published protocol generates YFP/CFP ratio images, we used it to generate Oxidised/Reduced (roGFP2 ratio) ratio images. The roGFP2 ratio at the basal surface of MDCK cysts was used to indicate LOX inhibition. LOX inhibitors were added 30 min prior to imaging.
For clarity, readout for DMSO treated cysts represents 0% inhibition (no inhibition) and readout for BAPN at 1 mM is used as 100% inhibition (full inhibition).

[3] = LOX, 10 uM, DMSO = 0%, BAPN 1 mM = 100% inhibition, inhibitor added 30 min prior to imaging

Compound: CCOc1ccc(N2C[C@H]3CN(C(=O)NCCS(=O)(=O)CCN)C[C@@H]2C(C)(C)C3)cc1 [Example 38, (1S,5S)—N-(2-((2-aminoethyl)sulfonyl)ethyl)-6-(4-ethoxyphenyl)-9,9-dimethyl-3,6-diazabicyclo[3.2.2]nonane-3-carboxamide]
IC50 (LOX [1]): 8.8 µM
inhibition at 10 µM (LOX [2]; LOX): 70%

Compound: CCOc1ccc(N2C[C@@H]3C[C@H]2CN3C(=O)CS(=O)(=O)CCN)cc1 [Example 8, 2-((2-aminoethyl)-sulfonyl)-1-((1S,4S)-5-(4-ethoxyphenyl)-2,5-diazabicyclo-[2.2.1]heptan-2-yl)-ethan-1-one]
inhibition at 2.5 µM (LOX [2]; LOX, 2.5 uM (stated in cell), DMSO = 0%, BAPN 1 mM = 100% inhibition, read-out: Cyst LOX (% inhibition) @ 2.5 uM): 46%
IC50 (LOX [2]; MDCK cysts, read-out: Cyst LOX IC50): 0.37 µM
IC50 (LOXL3): 0.55 µM

Compound: CCOc1ccc(N2C[C@H]3CN(C(=O)CS(=O)(=O)CCN)C[C@@H]2C(C)(C)C3)cc1 [Example 7, 2-((2-aminoethyl)sulfonyl)-1-((1S,5S)-6-(4-ethoxyphenyl)-9,9-dimethyl-3,6-diazabicyclo[3.2.2]nonan-3-yl)ethan-1-one]
inhibition at 10 µM (LOX [2]; LOX): 79%

Compound: CCOc1ccc(N2CC3CN(CCS(=O)(=O)CCN)CC3C2)cc1 (stereo not drawn) [Example 4, 2-((2-(5-(4-ethoxyphenyl)hexahydropyrolo [3,4-c]pyrrol-2(1H)-yl)ethyl)sulfonyl)ethan-1-amine]
inhibition at 10 µM (LOX [2]; [3]): 100%

Compound: CCOc1ccc(N2C[C@H]3CN(c4ccc(S(=O)(=O)CCN)cc4)C[C@@H]2C(C)(C)C3)cc1 [Example 33, 2-((4-((1R,5S)-6-(4-ethoxyphenyl)-9,9-dimethyl-3,6-diazabicyclo [3.2.2]nonan-3-yl)phenyl)sulfonyl)ethan-1-amine]
inhibition at 10 µM (LOX [2]; [3]): 100%

Results, then the compound that gave them:

IC50 (LOX [1]): 25 µM
IC50 (LOXL3): 0.28 µM
Compound: NCCS(=O)(=O)CC(=O)N1CCN(c2ccccc2)CC1 [Example 13, 2-((2-Aminoethyl)-sulfonyl)-1-(4-phenylpiperazin-1-yl)ethan-1-one]

IC50 (LOX [1]): 41 µM
Compound: CCOC(=O)CCC(C(=O)N1C[C@@H]2C[C@H]1CN2c1ccc(OCC)cc1)S(=O)(=O)CCN (stereo partly drawn) [Example 41, ethyl 4-((2-aminoethyl)sulfonyl)-5-((1S,4S)-5-(4-ethoxyphenyl)-2,5-diazabicyclo[2.2.1]heptan-2-yl)-5-oxopentanoate]

IC50 (LOX [1]): > 100 µM
Compound: CCOc1ccc(N2C[C@@H]3C[C@H]2CN3C(=O)C2(S(=O)(=O)CCN)CC2)cc1 [Example 42, (1-((2-Aminoethyl)sulfonyl)cyclopropyl)((1S,4S)-5-(4-ethoxyphenyl)-2,5-diazabicyclo[2.2.1]heptan-2-yl)methanone]
